Experimental data as given in DBAASP.
≈ marks a conversion by molar mass, not a printed value. One block for each compound: values may come before it.

Key:
Experiment in all cases: ≥ marks a high value that may be exact or a test limit, other limits are often not marked, values filed in µg/mL are converted to µM
[1] = test system: Staphylococcus aureus CCT 6538
[2] = test system: Streptococcus mutans AU159
[3] = test system: Pseudomonas aeruginosa ATCC 15422
[4] = test system: Bacillus subtilis CCT 2576
[5] = test system: Bacillus cereus ATCC 11778
[6] = test system: Micrococcus luteus ATCC 4698
[7] = test system: Escherichia coli CCT 1457
[8] = test system: Salmonella enterica subsp. enterica serovar Typhimurium ATCC 14028
[9] = test system: Enterococcus hirae ATCC 10541
[10] = test system: Streptococcus pneumoniae ATCC 11733
[11] = test system: Staphylococcus aureus ATCC 6538
[12] = test system: Escherichia coli ATCC 25922
[13] = test system: Salmonella enterica subsp. enterica serovar Choleraesuis ATCC 10708
[14] = test system: Staphylococcus epidermidis ATCC 12228
[15] = test system: Staphylococcus aureus ATCC 25923
[16] = test system: Pseudomonas aeruginosa ATCC 13388
[17] = test system: Bacillus thuringiensis ATCC 10792
[18] = test system: Enterococcus faecium CCT 5079
[19] = test system: Escherichia coli ATCC 11775
[20] = test system: Staphylococcus aureus CCT 2580
[21] = test system: Nocardia asteroides
[22] = test system: Candida albicans
[23] = test system: Pseudomonas aeruginosa 1
[24] = test system: Arcyria cinerea
[25] = test system: Stenotrophomonas maltophilia 2
[26] = test system: Shigella dysenteriae
[27] = test system: Serratia marcescens
[28] = test system: Staphylococcus epidermidis
[29] = test system: Klebsiella pneumoniae 2
[30] = test system: Enterococcus faecalis
[31] = test system: Klebsiella pneumoniae
[32] = test system: Stenotrophomonas maltophilia
[33] = test system: Proteus vulgaris
[34] = test system: Cryptococcus neoformans
[35] = test system: Candida glabrata 1
[36] = test system: Klebsiella pneumoniae 1
[37] = test system: Pseudomonas aeruginosa ATCC 27853
[38] = test system: Salmonella enterica subsp. enterica serovar Paratyphi A
[39] = test system: Candida albicans 1
[40] = test system: Pseudomonas aeruginosa 2
[41] = test system: Staphylococcus aureus 1
[42] = test system: Proteus mirabilis
[43] = test system: Staphylococcus aureus 4
[44] = test system: Enterococcus faecium
[45] = test system: Candida glabrata
[46] = test system: Escherichia coli
[47] = test system: Bacillus cereus
[48] = test system: Acinetobacter baumannii
[49] = test system: Candida albicans 5
[50] = test system: Bacillus subtilis
[51] = test system: Klebsiella oxytoca
[52] = test system: Klebsiella pneumoniae 5
[53] = test system: Staphylococcus aureus ATCC 6538P
[54] = test system: Bacillus subtilis PY79
[55] = test system: Pseudomonas aeruginosa PAO1
[56] = test system: Pseudomonas aeruginosa PA14
[57] = test system: Klebsiella pneumoniae ATCC 700603
[58] = test system: Escherichia coli DH5alpha
[59] = test system: Fusarium graminearum PH-1

- MIC [1]: ≥ 39.7 µM
- MIC [2]: ≥ 315 µM
- MIC [3]: ≥ 78.9 µM
- MIC [4]: 7.38 µM (≈ 11.7 µg/mL)
- MIC [5]: 10.1 µM (≈ 16 µg/mL)
- MIC [6]: 19.6 µM (≈ 31 µg/mL)
- MIC [7]: 19.6 µM (≈ 31 µg/mL)
- MIC [8]: 315 µM (≈ 500 µg/mL)
- MIC [9]: ≥ 39.7 µM
- MIC [10]: ≥ 78.9 µM
- MIC [11]: 27.1 µM (≈ 42.9 µg/mL)
- MIC [12]: 14.8 µM (≈ 23.4 µg/mL)
- MIC [14]: 39.7 µM (≈ 63 µg/mL)
- MIC [15]: 39.7 µM (≈ 63 µg/mL)
- MIC [16]: ≥ 158 µM
- MIC [17]: ≥ 78.9 µM
- MIC [18]: ≥ 158 µM
- MIC [19]: ≥ 39.7 µM
- MIC [20]: 27.1 µM (≈ 43 µg/mL)
Compound: CC[C@H](C)[C@H](N)C(=O)N[C@@H](CC(N)=O)C(=O)N[C@@H](Cc1c[nH]c2ccccc12)C(=O)N[C@@H](CC(C)C)C(=O)N[C@@H](CCCCN)C(=O)N[C@@H](C)C(=O)N[C@@H](CCCCN)C(=O)N[C@@H](CCCCN)C(=O)N[C@H](C(=O)N[C@@H](C)C(=O)NCC(=O)N[C@@H](CCSC)C(=O)N[C@H](C(=O)N[C@@H](CC(C)C)C(N)=O)[C@@H](C)CC)C(C)C [INWLKAKKVAGMIL]
- MIC [13]: ≥ 315 µM

- MIC [21]: 22.8 µM (≈ 75 µg/mL)
- MIC [22]: 11.4 µM (≈ 37.5 µg/mL)
- MIC [23]: 5.71 µM (≈ 18.7 µg/mL)
- MIC [24]: 5.71 µM (≈ 18.7 µg/mL)
- MIC [25]: 2.86 µM (≈ 9.37 µg/mL)
- MIC [26]: 1.43 µM (≈ 4.69 µg/mL)
- MIC [27]: ≥ 60.9 µM
- MIC [28]: 2.86 µM (≈ 9.37 µg/mL)
- MIC [29]: 5.71 µM (≈ 18.7 µg/mL)
- MIC [30]: 22.8 µM (≈ 75 µg/mL)
- MIC [31]: 22.8 µM (≈ 75 µg/mL)
- MIC [32]: 11.4 µM (≈ 37.5 µg/mL)
- MIC [33]: ≥ 60.9 µM
- MIC [34]: ≥ 60.9 µM
- MIC [35]: 2.86 µM (≈ 9.37 µg/mL)
- MIC [36]: 11.4 µM (≈ 37.5 µg/mL)
- MIC [37]: 2.86 µM (≈ 9.37 µg/mL)
- MIC [38]: 11.4 µM (≈ 37.5 µg/mL)
- MIC [39]: 2.86 µM (≈ 9.37 µg/mL)
- MIC [40]: 1.43 µM (≈ 4.69 µg/mL)
- MIC [41]: 2.02 µM (≈ 6.63 µg/mL)
- MIC [42]: 5.71 µM (≈ 18.7 µg/mL)
- MIC [43]: ≥ 60.9 µM
- MIC [44]: 2.86 µM (≈ 9.37 µg/mL)
- MIC [15]: > 60.9 µM
- MIC [45]: ≥ 60.9 µM
- MIC [46]: 4.04 µM (≈ 13.3 µg/mL)
- MIC [47]: ≥ 60.9 µM
- MIC [48]: ≥ 60.9 µM
- MIC [49]: ≥ 60.9 µM
- MIC [50]: 2.86 µM (≈ 9.37 µg/mL)
- MIC [51]: 1.43 µM (≈ 4.69 µg/mL)
- MIC [52]: ≥ 60.9 µM
Compound: CC[C@H](C)[C@H](NC(=O)[C@H](CO)NC(=O)[C@H](CCCCN)NC(=O)[C@@H](NC(=O)[C@H](CCCCN)NC(=O)[C@H](CCCCN)NC(=O)[C@H](CCCCN)NC(=O)[C@@H](NC(=O)[C@H](CCCCN)NC(=O)[C@@H]1CSSC[C@H](NC(=O)[C@H](CCCCN)NC(=O)[C@@H](N)CCCCN)C(=O)N[C@@H](CCCCN)C(=O)N[C@@H](Cc2ccccc2)C(=O)N[C@@H](Cc2ccccc2)C(=O)N1)C(C)C)[C@@H](C)CC)C(=O)NCC(=O)N[C@@H](Cc1ccccc1)C(=O)N[C@@H](CCC(N)=O)C(=O)N[C@H](C(=O)N1CCC[C@H]1C(=O)N[C@H](C(=O)N[C@H](C(=O)N[C@@H](CO)C(=O)N[C@H](C(=O)N1CCC[C@H]1C(=O)N[C@@H](Cc1ccccc1)C(=O)N[C@@H](CCCCN)C(=O)O)[C@@H](C)CC)C(C)C)[C@@H](C)CC)[C@@H](C)CC [KKCKFFCKVKKKIKSIGFQIPIVSIPFK]

- MIC [53]: ≥ 100 µM
- MIC [54]: ≥ 100 µM
- MIC [12]: 6.25 µM (≈ 13.6 µg/mL)
- MIC [55]: 25 µM (≈ 54.2 µg/mL)
- MIC [56]: ≥ 50 µM
- MIC [57]: 3.12 µM (≈ 6.77 µg/mL)
- MIC [58]: 12.5 µM (≈ 27.1 µg/mL)
Compound: CC(=O)NC(CC(C)C)C(=O)NC(CCCNC(=N)N)C(=O)NC(C(=O)NC(CCCNC(=N)N)C(=O)NC(CC(C)C)C(=O)NC(C)C(=O)NC(CO)C(=O)NC(Cc1c[nH]cn1)C(=O)NC(CC(C)C)C(=O)NC(CCCNC(=N)N)C(=O)NC(CCCCN)C(=O)NC(CC(C)C)C(=O)NC(CCCNC(=N)N)C(=O)NC(CCCCN)C(=O)NC(CCCNC(=N)N)C(=O)NC(CC(C)C)C(=O)NC(CC(C)C)C(N)=O)C(C)C (stereo unspecified) [LRVRLASHLRKLRKRLL]

- MIC [59]: 12 µM (≈ 10.2 µg/mL)
Compound: NC(N)=NCCC[C@H](NC(=O)[C@H](CCCN=C(N)N)NC(=O)[C@H](CCCN=C(N)N)NC(=O)[C@H](Cc1ccccc1)NC(=O)CNC(=O)[C@@H](N)CCCN=C(N)N)C(=O)O [RGFRRR]
